# Reference: US20150191469A1, “COMPOUNDS AND METHODS FOR TREATING HIV” (priority 2012, published 2015)
# System: HIV
# Test: MT4 assay: antiviral HIV activity (cell protection, cell titer glo readout at 96 hours)
# Assay type: cell-based
# Settings: Human immunodeficiency virus 1, MT4, 96 h, MT4 cells, cell titer glo readout at 96 hours, 10 point dose response; read-out: HIV MT4 Assay IC50
# How it was run: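 MT-4 cells infected with HIV, with inhibition readout by CellTiter-Glo luminescence at 96 h relative to no-compound control. Cytotoxicity measured in parallel under the same conditions. IC50 from a 10-point, 3-4-fold dilution series spanning >1000-fold, fitted with a four-parameter logistic equation.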
row,Compound,IC50
1,Cc1nc2c(cc(-c3ccn(C4CN(C(=O)OC(C)(C)C)C4)n3)n2C)c(-c2cc(F)c3c(c2C)CCCO3)c1[C@H](OC(C)(C)C)C(=O)O [Example 185],32.2 nM
2,CCCCNC(=O)c1cc2c(-c3cc(F)c4c(c3C)CCCO4)c([C@H](OC(C)(C)C)C(=O)O)c(C)nc2n1C [Example 239],6.5 nM
3,Cc1nc2c(cc(-c3nsc(N4CCCCC4)n3)n2C)c(-c2cc(F)c3c(c2C)CCCO3)c1[C@H](OC(C)(C)C)C(=O)O [Example 370],9.5 nM
4,Cc1nc2c(cc(C(=O)N3CCC(c4ccc(C#N)cc4)CC3)n2C)c(-c2cc(F)c3c(c2C)CCCO3)c1[C@H](OC(C)(C)C)C(=O)O [Example 175],4.8 nM
5,"Cc1nc2c(cc(-c3ccnc(-c4cnc5c(cnn5C)c4)c3)n2C)c(-c2ccc3c(c2C)CCCO3)c1[C@H](OC(C)(C)C)C(=O)O (atropisomer, axis not shown) [Example 4, (2S)-2-(tert-butoxy)-2-[1,6-dimethyl-2-(2-{1-methyl-1H-pyrazolo[3,4-b]pyridin-5-yl}pyridin-4-yl)-4-(5-methyl-3,4-dihydro-2H-1-benzopyran-6-yl)-1H-pyrrolo[2,3-b]pyridin-5-yl]acetic acid]",1.6 nM
6,"Cc1nc2c(cc(-c3nnc(N4CCN(C5CCOCC5)CC4)o3)n2C)c(-c2cc(F)c3c(c2C)CCCO3)c1[C@H](OC(C)(C)C)C(=O)O (atropisomer, axis not shown; (M)) [Example 300, (2S)(M)-2-(tert-butoxy)-2-(-4-(8-fluoro-5-methylchroman-6-yl)-1,6-dimethyl-2-(5-(4-(tetrahydro-2H-pyran-4-yl)piperazin-1-yl)-1,3,4-oxadiazol-2-yl)-1H-pyrrolo[2,3-b]pyridin-5-yl)acetic acid]",10.4 nM
7,Cc1nc2c(cc(/C=C/C(=O)NCCO)n2C)c(-c2cc(F)c3c(c2C)CCCO3)c1[C@H](OC(C)(C)C)C(=O)O [Example 418],3440 nM
8,"Cc1nc2c(cc(-c3ccnc(N4CCCN(C(C)C)CC4)c3)n2C)c(-c2cc(F)c3c(c2C)CCCO3)c1[C@H](OC(C)(C)C)C(=O)O (atropisomer, axis not shown) [Example 98]",16.2 nM
9,Cc1nc2c(cc(C(=O)NC3Cc4ccccc4C3)n2C)c(-c2cc(F)c3c(c2C)CCCO3)c1[C@H](OC(C)(C)C)C(=O)O [Example 271],1.6 nM
10,"Cc1nc2c(cc(-c3ccnc(C(=O)NCc4ccc(F)cc4)c3)n2C)c(-c2cc(F)c3c(c2C)CCCO3)c1[C@H](OC(C)(C)C)C(=O)O (atropisomer, axis not shown) [Example 151]",43.6 nM
11,CCO[C@H](C(=O)O)c1c(C)nc2c(cc(-c3nnc(N4CCN(C5CCOCC5)CC4)o3)n2C)c1-c1cc(F)c2c(c1C)CCCO2 [Example 440],348 nM
12,"Cc1nc2c(cc(-c3ccnc(C#CC(C)(C)N)c3)n2C)c(-c2cc(F)c3c(c2C)CCCO3)c1[C@H](OC(C)(C)C)C(=O)O (atropisomer, axis not shown) [Example 155]",81.9 nM
13,"Cc1nc2c(cc(-c3ccnc(N4CCC(N(C)C)CC4)c3)n2C)c(-c2cc(F)c3c(c2C)CCCO3)c1[C@H](OC(C)(C)C)C(=O)O (atropisomer, axis not shown) [Example 87]",42.8 nM
14,Cc1nc2c(cc(C(=O)N3CCCC3)n2C)c(-c2cc(F)c3c(c2C)CCCO3)c1[C@H](OC(C)(C)C)C(=O)O [Example 250],40.1 nM
15,COC[C@@H]1CCCN1c1nnc(-c2cc3c(-c4cc(F)c5c(c4C)CCCO5)c([C@H](OC(C)(C)C)C(=O)O)c(C)nc3n2C)o1 [Example 349],3 nM
16,Cc1nc2c(cc(-c3nnc(N4CCC(N5CCOCC5)CC4)o3)n2C)c(-c2cc(F)c3c(c2C)CCCO3)c1[C@H](OC(C)(C)C)C(=O)O [Example 318],14.2 nM
17,"Cc1nc2c(cc(C(=O)N3CCN(c4ccc5c(cnn5C)c4)CC3)n2C)c(-c2cc(F)c3c(c2C)CCCO3)c1[C@H](OC(C)(C)C)C(=O)O (atropisomer, axis not shown) [Example 11, (2S)-2-(tert-butoxy)-2-[4-(8-fluoro-5-methyl-3,4-dihydro-2H-1-benzopyran-6-yl)-1,6-dimethyl-2-{[4-(1-methyl-1H-indazol-5-yl)piperazin-1-yl]carbonyl}-1H-pyrrolo[2,3-b]pyridin-5-yl]acetic acid]",14.8 nM
18,"Cc1nc2c(cc(-c3ccnc(-c4ccc5c(c4)NCCO5)c3)n2C)c(-c2cc(F)c3c(c2C)CCCO3)c1[C@H](OC(C)(C)C)C(=O)O (atropisomer, axis not shown) [Example 50]",8.7 nM
19,Cc1nc2c(cc(-c3nc(N4CCN(CC5CC5)CC4)ns3)n2C)c(-c2cc(F)c3c(c2C)CCCO3)c1[C@H](OC(C)(C)C)C(=O)O [Example 386],5.9 nM
20,"Cc1nc2c(cc(-c3ccnc(N4CCN(c5ccncc5)CC4)c3)n2C)c(-c2cc(F)c3c(c2C)CCCO3)c1[C@H](OC(C)(C)C)C(=O)O (atropisomer, axis not shown) [Example 88]",13.4 nM
21,"Cc1nc2c(cc(-c3ccnc(NC4COC4)c3)n2C)c(-c2cc(F)c3c(c2C)CCCO3)c1[C@H](OC(C)(C)C)C(=O)O (atropisomer, axis not shown) [Example 81]",2280 nM
22,Cc1nc2c(cc(-c3nnc(N4CCOC[C@@H]4C)o3)n2C)c(-c2cc(F)c3c(c2C)CCCO3)c1[C@H](OC(C)(C)C)C(=O)O [Example 329],13.4 nM

row,Compound,IC50
1,Cc1nc2c(cc(C(=O)NCCC3CCOCC3)n2C)c(-c2cc(F)c3c(c2C)CCCO3)c1[C@H](OC(C)(C)C)C(=O)O [Example 241],21.2 nM
2,Cc1nc2c(cc(CCc3ccc4cnn(C)c4c3)n2C)c(-c2cc(F)c3c(c2C)CCCO3)c1[C@H](OC(C)(C)C)C(=O)O [Example 286],15 nM
3,Cc1nc2c(cc(-c3nnc(CN4CCCCC4)o3)n2C)c(-c2cc(F)c3c(c2C)CCCO3)c1[C@H](OC(C)(C)C)C(=O)O [Example 313],8.4 nM
4,Cc1nc2c(cc(-c3ccnc(CNc4ncc(F)cn4)c3)n2C)c(-c2cc(F)c3c(c2C)CCCO3)c1[C@H](OC(C)(C)C)C(=O)O [Example 74],56.5 nM
5,Cc1nc2c(cc(-c3cc(-c4ccc5c(cnn5C)c4)[nH]n3)n2C)c(-c2cc(F)c3c(c2C)CCCO3)c1[C@H](OC(C)(C)C)C(=O)O [Example 140],14.1 nM
6,Cc1nc2c(cc(-c3nc(-c4ccc5c(cnn5C)c4)nn3C)n2C)c(-c2cc(F)c3c(c2C)CCCO3)c1[C@H](OC(C)(C)C)C(=O)O [Example 141],149 nM
7,"Cc1nc2c(cc(-c3nccc(N4CCN(C5CCOCC5)CC4)n3)n2C)c(-c2cc(F)c3c(c2C)CCCO3)c1[C@H](OC(C)(C)C)C(=O)O (atropisomer, axis not shown; (M)) [Example 358]",17.6 nM
8,"Cc1nc2c(cc(-c3ccnc(-c4ccc(O)c(N)c4)c3)n2C)c(-c2cc(F)c3c(c2C)CCCO3)c1[C@H](OC(C)(C)C)C(=O)O (atropisomer, axis not shown) [Example 49]",114 nM
9,"CC(=O)N1CCN(c2cc(-c3cc4c(-c5cc(F)c6c(c5C)CCCO6)c([C@H](OC(C)(C)C)C(=O)O)c(C)nc4n3C)ccn2)CC1 (atropisomer, axis not shown) [Example 89]",25 nM
10,"Cc1nc2c(cc(-c3ccnc(N4CCCNCC4)c3)n2C)c(-c2cc(F)c3c(c2C)CCCO3)c1[C@H](OC(C)(C)C)C(=O)O (atropisomer, axis not shown) [Example 96]",350 nM
11,Cc1nc2c(cc(CN3CCCN(C4COC4)CC3)n2C)c(-c2cc(F)c3c(c2C)CCCO3)c1[C@H](OC(C)(C)C)C(=O)O [Example 289],171 nM
12,Cc1nc2c(cc(CN3CCC[C@H](NC(=O)c4ccc5c(cnn5C)c4)C3)n2C)c(-c2cc(F)c3c(c2C)CCCO3)c1[C@H](OC(C)(C)C)C(=O)O [Example 294],38.6 nM
13,COC[C@@H]1CCCN1c1nsc(-c2cc3c(-c4cc(F)c5c(c4C)CCCO5)c([C@H](OC(C)(C)C)C(=O)O)c(C)nc3n2C)n1 [Example 404],12.8 nM
14,"Cc1nc2c(cc(-c3ccnc(-c4ccn5cc(C(F)(F)F)nc5c4)c3)n2C)c(-c2cc(F)c3c(c2C)CCCO3)c1[C@H](OC(C)(C)C)C(=O)O (atropisomer, axis not shown) [Example 67]",45 nM
15,"Cc1nc2c(cc(-c3ccnc(-c4cnc(N5CCN(C)CC5)nc4)c3)n2C)c(-c2cc(F)c3c(c2C)CCCO3)c1[C@H](OC(C)(C)C)C(=O)O (atropisomer, axis not shown) [Example 70]",3.1 nM
16,Cc1nc2c(cc(C(=O)N3CCC4(CCCC4)CC3)n2C)c(-c2cc(F)c3c(c2C)CCCO3)c1[C@H](OC(C)(C)C)C(=O)O [Example 193],12.3 nM
17,Cc1nc2c(cc(-c3cc(N4CCN(C5CCOCC5)CC4)ncn3)n2C)c(-c2cc(F)c3c(c2C)CCCO3)c1[C@H](OC(C)(C)C)C(=O)O [Example 359],4.1 nM
18,Cc1nc2c(cc(-c3nc(N4CCN(C(=O)N5CCOCC5)CC4)ns3)n2C)c(-c2cc(F)c3c(c2C)CCCO3)c1[C@H](OC(C)(C)C)C(=O)O [Example 388],9.3 nM
19,Cc1nc2c(cc(-c3nsc(N4CCN(C)CC4)n3)n2C)c(-c2cc(F)c3c(c2C)CCCO3)c1[C@H](OC(C)(C)C)C(=O)O [Example 371],8.4 nM
20,Cc1nc2c(cc(-c3nnc(-c4ccc5c(cnn5C)c4)o3)n2C)c(-c2cc(F)c3c(c2C)CCCO3)c1[C@H](OC(C)C)C(=O)O [Example 442],5.1 nM
21,"Cc1nc2c(cc(-c3ccc(F)cc3)n2C)c(-c2cc(F)c3c(c2C)CCCO3)c1[C@H](OC(C)(C)C)C(=O)O (atropisomer, axis not shown) [Example 131]",89.5 nM

# Same assay, conditions: MT4 cells, cell titer glo readout at 96 hours, 10 point dose response; read-out: HIV MT4 Assay IC50
row,Compound,IC50
1,"Cc1nc2c(cc(-c3nc(N4CCN(C5CCOCC5)CC4)ns3)n2C)c(-c2cc(F)c3c(c2C)CCCO3)c1[C@H](OC(C)(C)C)C(=O)O (atropisomer, axis not shown; (M)) [Example 26, (2S)(M)-2-(tert-butoxy)-2-(4-(8-fluoro-5-methylchroman-6-yl)-1,6-dimethyl-2-(3-(4-(tetrahydro-2H-pyran-4-yl)piperazin-1-yl)-1,2,4-thiadiazol-5-yl)-1H-pyrrolo[2,3-b]pyridin-5-yl)acetic acid]",2.9 nM
